The source of these data is patent US20250136619A1, “HETEROBIFUNCTIONAL COMPOUNDS AND THEIR USE IN TREATING DISEASE” (HALDA THERAPEUTICS OPCO, INC., priority 2021, published 2025).

In one test the test system is HEK293 cells. Description: Cellular growth inhibition assay (CellTiter-Glo), HEK293 cells. The note with it: read-out: CTG HEK293 GI50. The test is classed as cell-based. On the procedure:
(§1) HEK293 and HeLa cells were cultured in DMEM medium supplemented with 10% fetal bovine serum and 1% Penn/Strep. Cells were seeded in white 384-well plates at 500 cells/well in […] complete medium. Following seeding, plates were spun at 300×g for three minutes and cultured at 37° C. with 5% CO2 in a humidified tissue culture incubator.
(§2) After 24 hours, compounds were titrated in 100% DMSO and diluted in complete cell culture medium. […] of compound/media mixture was added to cells to bring total volume in well to […]. DMSO alone was used as a negative control. Plates were then spun at 300×g for three minutes and stored at 37° C. with 5% CO2 for three days.
(§3) On Day 0 and Day 3 of compound treatment, cell viability was quantified with CellTiter-Glo 2.0 reagent (Promega). After equilibrating microplates at room temperature for 30 minutes, 25 μL CellTiter-Glo 2.0 reagent was dispensed into each well to bring total volume to […]. Plates were mixed on shaker for 2 minutes at 500 rpm, followed by a 10-minute incubation at room temperature. Following a quick spin, luminescence readings were measured with an En Vision Plate Reader. Data was normalized to DMSO treated Day 0 and Day 3 readings. A four-parameter non-linear regression curve fit was applied to dose-response data in GraphPad Prism data analysis software to determine the half maximal growth inhibitory concentration (GI50) for each compound.

A further test has as its system HeLa cells. In words: Cellular growth inhibition assay (CellTiter-Glo), HeLa cells. The test is classed as cell-based. The note with it: read-out: CTG HELA GI50. How it is done:
as §1, §2, §3
(ATP-based viability assays read luminescence as a measure of living cells.)

The mark [1] stands for this setting: HEK293 cells, three days of compound treatment, CellTiter-Glo 2.0.
Setting [2] is: HeLa cells, three days of compound treatment, CellTiter-Glo 2.0.
Where [3] appears, read: Homo sapiens, 72 h, HEK293 cells, three days of compound treatment, CellTiter-Glo 2.0.
The mark [4] stands for this setting: Homo sapiens, 72 h, HeLa cells, three days of compound treatment, CellTiter-Glo 2.0.

Where two headings read alike, the source gives them in different places. Bounds are passed on as bounds.

By GI50 is commonly meant the concentration at which growth is held to half of that of the control. As for `CCc1cnn2c(NCc3ccc(=O)n(CCOCCOCCOCCOCCNS(=O)(=O)c4cc(F)cc(N(C(=O)[C@@H]5CCC(=O)N5c5cc(C#N)ccn5)C(C(=O)NC5CC(F)(F)C5)c5ccccc5Cl)c4)c3)cc(N3CCCC[C@H]3CCO)nc12` (some centres unmarked) [Compound I-95], the figures for the GI50 in the test with HEK293 cells (setting [1]) and in the test with HeLa cells (setting [2]) were 1500 to 5000 nM and 500 to 1500 nM, respectively.

For the compound `CN(CCNS(=O)(=O)c1cc(F)cc(N(C(=O)[C@@H]2CCC(=O)N2c2cc(C#N)ccn2)[C@@H](C(=O)NC2CC(F)(F)C2)c2ccccc2Cl)c1)C(=O)N1N=C(c2cc(F)ccc2F)SC1(CCCN)c1ccccc1` (stereo partly drawn) [Compound I-113, 2-(3-aminopropyl)-N-[2-[[3-[[(1R)-1-(2-chlorophenyl)-2-[(3,3-difluorocyclobutyl)amino]-2-oxo-ethyl]-[(2S)-1-(4-cyano-2-pyridyl)-5-oxo-pyrrolidine-2-carbonyl]amino]-5-fluoro-phenyl]sulfonylamino]ethyl]-5-(2,5-difluorophenyl)-N-methyl-2-phenyl-1,3,4-thiadiazole-3-carboxamide], the GI50 in the test with HEK293 cells (setting [3]) and with HeLa cells (setting [4]) was greater than 5000 nM in each case.

As for `CC(C)(C)c1[nH]cnc1/C=c1\[nH]c(=O)/c(=C/c2ccccc2)n(CCOCCOCCOCCOCC(=O)N2CC(=O)N(c3cc(C#N)ccn3)[C@H](C(=O)N(c3cc(F)cc(F)c3)[C@H](C(=O)NC3CC(F)(F)C3)c3ccccc3Cl)C2)c1=O` [Compound I-110, (2S)-4-[2-[2-[2-[2-[2-[(2Z,5Z)-2-benzylidene-5-[(5-tert-butyl-1 H-imidazol-4-yl)methylene]-3,6-dioxo-piperazin-1-yl]ethoxy]ethoxy]ethoxy]ethoxy]acetyl]-N-[(1S)-1-(2-chlorophenyl)-2-[(3,3-difluorocyclobutyl)amino]-2-oxo-ethyl]-1-(4-cyano-2-pyridyl)-N-(3,5-difluorophenyl)-6-oxo-piperazine-2-carboxamide], the GI50 with HEK293 cells (setting [3]) and with HeLa cells (setting [4]) was greater than 5000 nM in each case.

As to `CCS(=O)(=O)Nc1ccc(Oc2cccc(OCCOCCOCCOCCOCC(=O)N3CC(=O)N(c4cc(C#N)ccn4)[C@H](C(=O)N(c4cc(F)cc(F)c4)C(C(=O)NC4CC(F)(F)C4)c4ccccc4Cl)C3)c2)c(-c2cn(C)c(=O)c3[nH]ccc23)c1` (stereo partly drawn) [Compound I-108, (2S)—N-[1-(2-chlorophenyl)-2-[(3,3-difluorocyclobutyl)amino]-2-oxo-ethyl]-1-(4-cyano-2-pyridyl)-N-(3,5-difluorophenyl)-4-[2-[2-[2-[2-[2-[3-[4-(ethylsulfonylamino)-2-(6-methyl-7-oxo-1 H-pyrrolo[2,3-c]pyridin-4-yl)phenoxy]phenoxy]ethoxy]ethoxy]ethoxy]ethoxy]acetyl]-6-oxo-piperazine-2-carboxamide], the GI50 in the test with HEK293 cells (setting [3]) is greater than 5000 nM; in the test on HeLa cells (setting [4]) it was less than 500 nM.

On to `CCNC(=O)C[C@@H]1N=C(c2ccc(OCCOCCOCCOCCOCC(=O)N3CC(=O)N(c4cc(C#N)ccn4)[C@H](C(=O)N(c4cc(F)cc(F)c4)[C@H](C(=O)NC4CC(F)(F)C4)c4ccccc4Cl)C3)cc2)c2c(sc(C)c2C)-n2c(C)nnc21` [Compound I-106, (2S)—N-[(1S)-1-(2-chlorophenyl)-2-[(3,3-difluorocyclobutyl)amino]-2-oxo-ethyl]-1-(4-cyano-2-pyridyl)-N-(3,5-difluorophenyl)-4-[2-[2-[2-[2-[2-[4-[(9S)-9-[2-(ethylamino)-2-oxo-ethyl]-4,5,13-trimethyl-3-thia-1,8,11,12-tetrazatricyclo[8.3.0.0^2,6]trideca-2 (6),4,7, 10,12-pentaen-7-yl]phenoxy]ethoxy]ethoxy]ethoxy]ethoxy]acetyl]-6-oxo-piperazine-2-carboxamide], for which the GI50 in the test with HEK293 cells (setting [3]) and in the test with HeLa cells (setting [4]) was greater than 5000 nM throughout.

Take `C=CC(=O)N1CCN([C@@H](CC2CC2)c2ccc([C@H](C)Nc3ncc4c(n3)N(CCOCCOCCOCCOCCOCCOCCOCCOCCON(C)C(=O)N3N=C(c5cc(F)ccc5F)SC3(CCCN)c3ccccc3)C(=O)OC4)cc2)CC1` (some centres unmarked) [Compound I-61]: the figures for the GI50 with HEK293 cells (setting [3]) and in the test with HeLa cells (setting [4]) were 1500 to 5000 nM and 500 to 1500 nM, respectively.

With `CC(C)(C)c1[nH]cnc1/C=c1\[nH]c(=O)/c(=C/c2ccccc2)n(CCOCCOCC(=O)N2CC(=O)N(c3cc(C#N)ccn3)[C@H](C(=O)N(c3cc(F)cc(F)c3)[C@H](C(=O)NC3CC(F)(F)C3)c3ccccc3Cl)C2)c1=O` [Compound I-109, (2S)-4-[2-[2-[2-[(2Z,5Z)-2-benzylidene-5-[(5-tert-butyl-1H-imidazol-4-yl)methylene]-3,6-dioxo-piperazin-1-yl]ethoxy]ethoxy]acetyl]-N-[(1S)-1-(2-chlorophenyl)-2-[(3,3difluorocyclobutyl)amino]-2-oxo-ethyl]-1-(4-cyano-2-pyridyl)-N-(3,5-difluorophenyl)-6-oxo-piperazine-2-carboxamide], the GI50 in the test on HEK293 cells (Homo sapiens, HEK293, 72 h) is greater than 5000 nM; with HeLa cells (Homo sapiens, HeLa, 72 h), greater than 5000 nM.

For `C=CC(=O)N1CCN([C@@H](CC2CC2)c2ccc([C@H](C)Nc3ncc4c(n3)N(CCOCCOCCOCCOCCn3cc(CNc5cc(N6CCCC[C@H]6CCO)nc6c(CC)cnn56)ccc3=O)C(=O)OC4)cc2)CC1` [Compound I-58], the GI50 was 500 to 1500 nM in the test on HEK293 cells (setting [3]) and less than 500 nM in the test with HeLa cells (setting [4]).

Turning to `CCc1cnn2c(NCc3ccc(OCCOCCOCCOCCOCCCc4cc(-c5cnc([C@H](C)Nc6nccc(N7C(=O)OC[C@@H]7[C@H](C)F)n6)cc5C)cc(C(F)(F)F)n4)nc3)cc(N3CCCC[C@H]3CCO)nc12` [Compound I-102], the GI50 in the test on HEK293 cells (setting [1]) and in the test on HeLa cells (setting [2]) was less than 500 nM throughout.

For the compound `CCNC(=O)C[C@@H]1N=C(c2ccc(OCCOCCOCCOCCOCCNS(=O)(=O)c3cc(F)cc(N(C(=O)[C@@H]4CCC(=O)N4c4cc(C#N)ccn4)C(C(=O)NC4CC(F)(F)C4)c4ccccc4Cl)c3)cc2)c2c(sc(C)c2C)-n2c(C)nnc21` (stereo partly drawn) [Compound I-104, (2S)—N-[1-(2-chlorophenyl)-2-[(3,3-difluorocyclobutyl)amino]-2-oxo-ethyl]-1-(4-cyano-2-pyridyl)-N-[3-[2-[2-[2-[2-[2-[4-[(9S)-9-[2-(ethylamino)-2-oxo-ethyl]-4,5, 13-trimethyl-3-thia-1,8,11,12-tetrazatricyclo[8.3.0.0^2,6]trideca-2 (6),4,7,10,12-pentaen-7-yl]phenoxy]ethoxy]ethoxy]ethoxy]ethoxy]ethylsulfamoyl]-5-fluoro-phenyl]-5-oxo-pyrrolidine-2-carboxamide], the GI50 in the test with HEK293 cells (setting [3]) and in the test on HeLa cells (setting [4]) was greater than 5000 nM in each case.

For `CCc1cnn2c(NCc3ccc(OCCOCCOCCOCCOCCOCCOCCN(C)C/C=C/C(=O)N4CCC[C@@H](n5nc(-c6ccc(Oc7ccccc7)cc6)c6c(N)ncnc65)C4)nc3)cc(N3CCCC[C@H]3CCO)nc12` [Compound I-46], the GI50 with HEK293 cells (setting [3]) and with HeLa cells (setting [4]) was 1500 to 5000 nM throughout.

On to `CCNC(=O)C[C@@H]1N=C(c2ccc(OCCOCCOCC(=O)N3CC(=O)N(c4cc(C#N)ccn4)[C@H](C(=O)N(c4cc(F)cc(F)c4)[C@H](C(=O)NC4CC(F)(F)C4)c4ccccc4Cl)C3)cc2)c2c(sc(C)c2C)-n2c(C)nnc21` [Compound I-105, (2S)—N-[(1S)-1-(2-chlorophenyl)-2-[(3,3-difluorocyclobutyl)amino]-2-oxo-ethyl]-1-(4-cyano-2-pyridyl)-N-(3,5-difluorophenyl)-4-[2-[2-[2-[4-[(9S)-9-[2-(ethylamino)-2-oxo-ethyl]-4,5,13-trimethyl-3-thia-1,8,11,12-tetrazatricyclo[8.3.0.0^2,6]trideca-2 (6),4,7,10,12-pentaen-7-yl]phenoxy]ethoxy]ethoxy]acetyl]-6-oxo-piperazine-2-carboxamide], for which the GI50 in the test on HEK293 cells (setting [3]) and with HeLa cells (setting [4]) was greater than 5000 nM throughout.

As to `CCc1cnn2c(NCc3ccc(OCCOCCOCCCc4cc(-c5cnc([C@H](C)Nc6nccc(N7C(=O)OC[C@@H]7[C@H](C)F)n6)cc5C)cc(C(F)(F)F)n4)nc3)cc(N3CCCC[C@H]3CCO)nc12` [Compound I-99], the GI50 in the test with HEK293 cells (setting [1]) and in the test with HeLa cells (setting [2]) was less than 500 nM each time.

On to `CCc1cnn2c(NCc3ccc(=O)n(CCOCCOCCOCCOCCCc4cc(-c5cnc([C@H](C)Nc6nccc(N7C(=O)OC[C@@H]7[C@H](C)F)n6)cc5C)cc(C(F)(F)F)n4)c3)cc(N3CCCC[C@H]3CCO)nc12` [Compound I-103], for which the GI50 in the test on HEK293 cells (setting [1]) and in the test on HeLa cells (setting [2]) was 500 to 1500 nM each time.

Take `CCc1cnn2c(NCc3ccc(OCCCc4cc(-c5cnc([C@H](C)Nc6nccc(N7C(=O)OC[C@@H]7[C@H](C)F)n6)cc5C)cc(C(F)(F)F)n4)nc3)cc(N3CCCC[C@H]3CCO)nc12` [Compound I-101]: the GI50 in the test on HEK293 cells (setting [1]) and in the test on HeLa cells (setting [2]) was less than 500 nM throughout.

Consider `CCc1cnn2c(NCc3ccc(OCCOCCOCCCCCn4c(C#N)ccc(N[C@@H](C)c5cc6cc(Cl)ccc6[nH]c5=O)c4=O)nc3)cc(N3CCCC[C@H]3CCO)nc12` [Compound I-91], for which the GI50 in the test on HEK293 cells (setting [1]) and in the test on HeLa cells (setting [2]) was less than 500 nM in each case.
